In patent US20230227878A1, “PROCESS FOR PREPARING SURFACTANT” (Enza Biotech AB, priority 2020, published 2023):

Experiments:
[1] = Foam measurement (Dynamic Foam Analyser, Kruss); assay type: physicochemical; settings: 50 ml of 1.5 wt % solution, stirred at 3,000 rpm for 2 minutes
Description: Foaming was evaluated using a Dynamic Foam Analyser from Kruss. A volume of 50 ml of 1.5 wt % alkyl polyglucoside solution was added to the cylinder. […] PEG-80 sorbitan laurate and cocamidopropyl betaine were used as surfactant controls.

[2] = Essential oils solubility; assay type: physicochemical; settings: 7 wt % solubilizer in water, room temperature, after 5 hours
Description: 13 wt % solution of alkyl polyglucoside in distilled water was prepared and separately mixed with lemon oil, lavender oil, tea tree oil and patchouli oil at a ratio of 1:7 (w/w), and then the mixtures were added dropwise under stirring to water to a final concentration of 1 wt % essential oil and 7 wt % alkyl polyglucoside. […] The mixtures were then left at room temperature for 5 hours and observed for phase separation. Lauryl glucoside was used as a surfactant control with both lemon oil and lavender oil.

Substance	Foam height [1]	Essential oils solubility: lavender oil mixture appearance / phase separation ([2]; 1 wt % lavender oil)	Essential oils solubility: lemon oil mixture appearance / phase separation ([2]; 1 wt % lemon oil)
cocamidopropyl betaine	78 mm		
lauryl glucoside		white and cloudy, and had phase separated	white and cloudy, and had phase separated
